Drawing on the supplement of paper PMC10307832, this text covers relative viability for 4 cell lines.

Experiment in all cases: relative viability (nuclei count vs DMSO), 5 days (fraction); higher = more cells survive
Compound in test [1]: CC(C)C[C@H](NC(=O)[C@H](CCc1ccccc1)NC(=O)CN1CCOCC1)C(=O)N[C@@H](Cc1ccccc1)C(=O)N[C@@H](CC(C)C)C(=O)[C@@]1(C)CO1 [Carfilzomib] + CC(=O)c1c(C)c2cnc(Nc3ccc(N4CCNCC4)cn3)nc2n(C2CCCC2)c1=O [Palbociclib] (partner 0.5 µM)
Summed up:
(§1)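 One day after seeding in 1536-well plates, lung cancer cell lines were dosed by pin tool. Dosing was either single-drug or a fixed anchor-drug dose plus five library-drug doses (not always all listed) in √10 steps. After 5 days, nuclei were stained in one fix-and-stain step and counted on 4× images, and relative viability is the nuclei count of treated wells over that of vehicle wells, given as the median of duplicate plates.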

Compound in the test “Olaparib + Trametinib”: O=C(c1cc(Cc2n[nH]c(=O)c3ccccc23)ccc1F)N1CCN(C(=O)C2CC2)CC1 [Olaparib] + CC(=O)Nc1cccc(-n2c(=O)n(C3CC3)c(=O)c3c(Nc4ccc(I)cc4F)n(C)c(=O)c(C)c32)c1 [Trametinib] (partner 0.02 µM)
The gist of the method:
as §1

Compound in the test “Olaparib + Alpelisib”: O=C(c1cc(Cc2n[nH]c(=O)c3ccccc23)ccc1F)N1CCN(C(=O)C2CC2)CC1 [Olaparib] + Cc1nc(NC(=O)N2CCC[C@H]2C(N)=O)sc1-c1ccnc(C(C)(C)C(F)(F)F)c1 [Alpelisib] (partner 2 µM)
Summed up: as §1

Compound in the test “Carfilzomib + Pictilisib”: CC(C)C[C@H](NC(=O)[C@H](CCc1ccccc1)NC(=O)CN1CCOCC1)C(=O)N[C@@H](Cc1ccccc1)C(=O)N[C@@H](CC(C)C)C(=O)[C@@]1(C)CO1 [Carfilzomib] + CS(=O)(=O)N1CCN(Cc2cc3nc(-c4cccc5[nH]ncc45)nc(N4CCOCC4)c3s2)CC1 [Pictilisib] (partner 1 µM)
The gist of the method: as §1

In the case of NCI-H650, the relative viability was 0.331 in test [1] (first compound 0.001 µM); 0.362 in test [1] (first compound 0.003162 µM); 0.367 in test [1] (first compound 0.01 µM); 0.224 in test [1] (first compound 0.03162 µM); 0.14 in test [1] (first compound 0.1 µM); 0.893 in the test with Olaparib + Trametinib (first compound 0.08 µM). In addition, the relative viability was 0.939 in the test with Olaparib + Trametinib (first compound 0.253 µM); 0.915 in the test with Olaparib + Trametinib (first compound 2.53 µM); 0.782 with Olaparib + Trametinib (first compound 8 µM); 1.33 with Olaparib + Alpelisib (first compound 0.08 µM); 1.17 with Olaparib + Alpelisib (first compound 0.253 µM); 1.04 with Olaparib + Alpelisib (first compound 2.53 µM). The relative viability with Olaparib + Alpelisib (first compound 8 µM) was found to be 0.84; with Carfilzomib + Pictilisib (first compound 0.001 µM) it was 0.83; in the test with Carfilzomib + Pictilisib (first compound 0.003162 µM), 1.06; with Carfilzomib + Pictilisib (first compound 0.01 µM) it was 1.01; in the test with Carfilzomib + Pictilisib (first compound 0.03162 µM) it was 0.385; with Carfilzomib + Pictilisib (first compound 0.1 µM) it was 0.189.

Regarding NCI-H661, the relative viability is 0.423 in test [1] (first compound 0.001 µM); 0.414 in test [1] (first compound 0.003162 µM); 0.472 in test [1] (first compound 0.01 µM); 0.398 in test [1] (first compound 0.03162 µM); 0.318 in test [1] (first compound 0.1 µM); 0.602 with Olaparib + Trametinib (first compound 0.08 µM). For the same cell line, the relative viability in the test with Olaparib + Trametinib (first compound 0.253 µM) turned out to be 0.5; with Olaparib + Trametinib (first compound 2.53 µM), 0.569; with Olaparib + Trametinib (first compound 8 µM), 0.525; with Olaparib + Alpelisib (first compound 0.08 µM), 0.87; in the test with Olaparib + Alpelisib (first compound 0.253 µM), 0.511; with Olaparib + Alpelisib (first compound 2.53 µM), 0.618. The relative viability with Olaparib + Alpelisib (first compound 8 µM) amounted to 0.455; in the test with Carfilzomib + Pictilisib (first compound 0.001 µM) it was 0.391; in the test with Carfilzomib + Pictilisib (first compound 0.003162 µM) it was 0.458; with Carfilzomib + Pictilisib (first compound 0.01 µM), 0.457; in the test with Carfilzomib + Pictilisib (first compound 0.03162 µM) it was 0.483; with Carfilzomib + Pictilisib (first compound 0.1 µM), 0.238.

In the case of NCI-H727, the relative viability in test [1] (first compound 0.001 µM) came out at 0.575; in test [1] (first compound 0.003162 µM), 0.607; in test [1] (first compound 0.01 µM), 0.628; in test [1] (first compound 0.03162 µM), 0.584; in test [1] (first compound 0.1 µM), 0.417; in the test with Olaparib + Trametinib (first compound 0.08 µM), 0.415. For the same cell line, the relative viability with Olaparib + Trametinib (first compound 0.253 µM) was determined as 0.363; in the test with Olaparib + Trametinib (first compound 2.53 µM), 0.37; in the test with Olaparib + Trametinib (first compound 8 µM), 0.349; in the test with Olaparib + Alpelisib (first compound 0.08 µM) it was 0.607; with Olaparib + Alpelisib (first compound 0.253 µM), 0.527; with Olaparib + Alpelisib (first compound 2.53 µM), 0.597. For the same cell line, the relative viability worked out at 0.332 with Olaparib + Alpelisib (first compound 8 µM); 0.32 with Carfilzomib + Pictilisib (first compound 0.001 µM); 0.43 with Carfilzomib + Pictilisib (first compound 0.003162 µM); 0.418 with Carfilzomib + Pictilisib (first compound 0.01 µM); 0.215 with Carfilzomib + Pictilisib (first compound 0.03162 µM); 0.148 with Carfilzomib + Pictilisib (first compound 0.1 µM).

With NCI-H838, the relative viability in test [1] (first compound 0.001 µM) was determined as 0.209; in test [1] (first compound 0.003162 µM) it was 0.226; in test [1] (first compound 0.01 µM), 0.268; in test [1] (first compound 0.03162 µM) it was 0.193; in test [1] (first compound 0.1 µM) it was 0.102; with Olaparib + Trametinib (first compound 0.08 µM), 0.585. Moreover, the relative viability with Olaparib + Trametinib (first compound 0.253 µM) came to 0.493; in the test with Olaparib + Trametinib (first compound 2.53 µM) it was 0.536; with Olaparib + Trametinib (first compound 8 µM), 0.547; with Olaparib + Alpelisib (first compound 0.08 µM), 1.09; with Olaparib + Alpelisib (first compound 0.253 µM), 0.933; in the test with Olaparib + Alpelisib (first compound 2.53 µM), 0.978. The relative viability with Olaparib + Alpelisib (first compound 8 µM) turned out to be 0.944; with Carfilzomib + Pictilisib (first compound 0.001 µM), 0.487; with Carfilzomib + Pictilisib (first compound 0.003162 µM), 0.525; with Carfilzomib + Pictilisib (first compound 0.01 µM), 0.449; with Carfilzomib + Pictilisib (first compound 0.03162 µM), 0.615; in the test with Carfilzomib + Pictilisib (first compound 0.1 µM), 0.144.
